# Source: patent EP0908457B1, “3-(1,2-benzisothiazol- and isoxazol-5-Y1)-2,4(1H,3H)-pyrimidinedione or thione and 3-(1,2-benzisothiazol- and isoxazol-5-y1)-4(3H)-pyrimidinone or thione herbicidal agents” (BASF AKTIENGESELLSCHAFT, priority 1997, dated 1999)
# Tests used:
# [1] = test system: Echinochloa oryzoides (Ard.) Fritsch.; assay: Preemergence weed control under flooded paddy conditions, ECHORC (Watergrass (Calif.)); type: in vivo; settings: preemergence, flooded paddy; as to herbicidal effect rating, ECHORC: meaning of each grade not given here
# Cyperus iria = assay: Preemergence weed control under flooded paddy conditions, CYPIR (Rice Flatsedge); type: in vivo; settings: preemergence, flooded paddy; as to herbicidal effect rating, CYPIR: meaning of each grade not given here
# [2] = test system: Cyperus serotinus, Rottb.; assay: Preemergence weed control under flooded paddy conditions, CYPSE (Flatsedge); type: in vivo; settings: preemergence; as to herbicidal effect rating, CYPSE: meaning of each grade not given here
# [3] = test system: Monochoria vaginalis, Presl.; assay: Preemergence weed control under flooded paddy conditions, MOOVA (Monochoria); type: in vivo; settings: preemergence, flooded paddy; as to herbicidal effect rating, MOOVA: meaning of each grade not given here
# Sagittaria pygmaea, L. = assay: Preemergence weed control under flooded paddy conditions, SAGPY (Arrowhead (Pygmaea)); type: in vivo; settings: preemergence, flooded paddy; as to herbicidal effect rating, SAGPY: meaning of each grade not given here
# [4] = test system: Oryza sativa, (L.) Tebonnet; assay: Rice tolerance to post-transplant applications under flooded paddy conditions (Example 187), ORYSAT (Rice, Tebonnet); as to herbicidal effect rating ORYSAT: meaning of each grade not given here
# [5] = Rate 0.0320 kg/ha, rated three to four weeks after treatment
# [6] = Rate 0.0620 kg/ha, rated three to four weeks after treatment
# [7] = Rate 0.1250 kg/ha, rated three to four weeks after treatment
# [8] = Rate 0.2500 kg/ha, rated three to four weeks after treatment
# [9] = Rate 0.0320 kg/ha, rated 3-4 weeks after treatment
# [10] = Rate 0.0620 kg/ha, rated 3-4 weeks after treatment
# [11] = Rate 0.1250 kg/ha, rated 3-4 weeks after treatment
# [12] = Rate 0.2500 kg/ha, rated 3-4 weeks after treatment
# [13] = Rate 0.5000 kg/ha, rated 3-4 weeks after treatment
# [14] = Rate 0.0313 kg/ha, rated three to four weeks after treatment
# [15] = Rate 0.0625 kg/ha, rated three to four weeks after treatment
smiles,measurement,setting,value
"CCOCN(C(=O)c1nsc2ccc(-n3c(=O)cc(C(F)(F)F)n(C)c3=O)cc12)S(C)(=O)=O [Example 370, 1,2-Benzisothiazole-3-carboxamide, 5-[3,6-dihydro-3-methyl-2,6-dioxo-4-(trifluoromethyl)-1(2H)-pyrimidinyl]-N-(ethoxymethyl)-N-(methylsulfonyl)-]","herbicidal effect rating, ECHORC",[1]; [5],3.0
same,"herbicidal effect rating, ECHORC",[1]; [6],4.0
same,"herbicidal effect rating, ECHORC",[1]; [7],6.0
same,"herbicidal effect rating, ECHORC",[1]; [8],7.0
same,"herbicidal effect rating, CYPIR",Cyperus iria; [5],4.0
same,"herbicidal effect rating, CYPIR",Cyperus iria; [6],7.0
same,"herbicidal effect rating, CYPIR",Cyperus iria; [7],9.0
same,"herbicidal effect rating, CYPIR",Cyperus iria; [8],9.0
same,"herbicidal effect rating, CYPSE",[2]; [5],0.0
same,"herbicidal effect rating, CYPSE",[2]; [6],4.0
same,"herbicidal effect rating, CYPSE",[2]; [7],7.0
same,"herbicidal effect rating, CYPSE",[2]; [8],9.0
same,"herbicidal effect rating, MOOVA",[3]; [5],7.0
same,"herbicidal effect rating, MOOVA",[3]; [6],9.0
same,"herbicidal effect rating, MOOVA",[3]; [7],9.0
same,"herbicidal effect rating, MOOVA",[3]; [8],9.0
same,"herbicidal effect rating, SAGPY","Sagittaria pygmaea, L.; [5]",0.0
same,"herbicidal effect rating, SAGPY","Sagittaria pygmaea, L.; [6]",3.0
same,"herbicidal effect rating, SAGPY","Sagittaria pygmaea, L.; [7]",7.0
same,"herbicidal effect rating, SAGPY","Sagittaria pygmaea, L.; [8]",9.0
same,herbicidal effect rating ORYSAT,[4]; [5],3.0
same,herbicidal effect rating ORYSAT,[4]; [6],4.0
same,herbicidal effect rating ORYSAT,[4]; [7],4.0
same,herbicidal effect rating ORYSAT,[4]; [8],5.0
"CCCS(=O)(=O)NC(=O)COc1ccc(C)cc1-c1nsc2ccc(-n3c(=O)cc(C(F)(F)F)n(C)c3=O)cc12 [Example 552, Acetamide, 2-{{2-{5-[3,6-dihydro-3-methyl-2,6-dioxo-4-(trifluoromethyl)-1(2H)-pyrimidinyl]-1,2-benzisothiazol-3-yl}-p-tolyl}oxy}-N-(propylsulfonyl)-]","herbicidal effect rating, ECHORC",[1]; [9],2.6
same,"herbicidal effect rating, ECHORC",[1]; [10],3.7
same,"herbicidal effect rating, ECHORC",[1]; [11],4.7
same,"herbicidal effect rating, ECHORC",[1]; [12],9.0
same,"herbicidal effect rating, ECHORC",[1]; [13],9.0
same,"herbicidal effect rating, CYPIR",Cyperus iria; [9],6.0
same,"herbicidal effect rating, CYPIR",Cyperus iria; [10],8.0
same,"herbicidal effect rating, CYPIR",Cyperus iria; [11],7.0
same,"herbicidal effect rating, CYPIR",Cyperus iria; [12],9.0
same,"herbicidal effect rating, CYPIR",Cyperus iria; [13],9.0
same,"herbicidal effect rating, CYPSE",[2]; [9],0.0
same,"herbicidal effect rating, CYPSE",[2]; [11],4.0
same,"herbicidal effect rating, CYPSE",[2]; [12],9.0
same,"herbicidal effect rating, CYPSE",[2]; [13],9.0
same,"herbicidal effect rating, MOOVA",[3]; [9],6.0
same,"herbicidal effect rating, MOOVA",[3]; [10],8.0
same,"herbicidal effect rating, MOOVA",[3]; [11],9.0
same,"herbicidal effect rating, MOOVA",[3]; [12],9.0
same,"herbicidal effect rating, MOOVA",[3]; [13],9.0
same,"herbicidal effect rating, SAGPY","Sagittaria pygmaea, L.; [9]",0.0
same,"herbicidal effect rating, SAGPY","Sagittaria pygmaea, L.; [10]",0.0
same,"herbicidal effect rating, SAGPY","Sagittaria pygmaea, L.; [11]",0.0
same,"herbicidal effect rating, SAGPY","Sagittaria pygmaea, L.; [12]",0.0
same,"herbicidal effect rating, SAGPY","Sagittaria pygmaea, L.; [13]",5.0
same,herbicidal effect rating ORYSAT,[4]; [9],4.0
same,herbicidal effect rating ORYSAT,[4]; [10],6.0
same,herbicidal effect rating ORYSAT,[4]; [11],6.0
same,herbicidal effect rating ORYSAT,[4]; [12],7.0
same,herbicidal effect rating ORYSAT,[4]; [13],4.0
"Cn1c(C(F)(F)F)cc(=O)n(-c2ccc3snc(COC4C=CCCC4)c3c2)c1=O (stereo not drawn) [Example 209, 3-{3-[(2-Cyclohexen-1-yloxy)methyl]-1,2-benzisothiazol-5-yl}-1-methyl-6-(trifluoromethyl)-2,4(1H,3H)-pyrimidinedione]",ECHORC herbicidal effect rating,[1]; [14],1.0
same,ECHORC herbicidal effect rating,[1]; [15],2.0
same,ECHORC herbicidal effect rating,[1]; [7],2.0
same,CYPIR herbicidal effect rating,Cyperus iria; [14],2.0
same,CYPIR herbicidal effect rating,Cyperus iria; [15],4.0
same,CYPIR herbicidal effect rating,Cyperus iria; [7],8.0
same,CYPSE herbicidal effect rating,[2]; [14],0.0
same,CYPSE herbicidal effect rating,[2]; [15],0.0
same,CYPSE herbicidal effect rating,[2]; [7],0.0
same,MOOVA herbicidal effect rating,[3]; [14],0.0
same,MOOVA herbicidal effect rating,[3]; [15],0.0
same,MOOVA herbicidal effect rating,[3]; [7],0.0
same,SAGPY herbicidal effect rating,"Sagittaria pygmaea, L.; [14]",0.0
same,SAGPY herbicidal effect rating,"Sagittaria pygmaea, L.; [15]",0.0
same,SAGPY herbicidal effect rating,"Sagittaria pygmaea, L.; [7]",0.0
same,ORYSAT herbicidal effect rating,[4]; [14],3.0
same,ORYSAT herbicidal effect rating,[4]; [15],3.0
same,ORYSAT herbicidal effect rating,[4]; [7],4.0
"Cc1cccc(COCc2nsc3ccc(-n4c(=O)cc(C(F)(F)F)n(C)c4=O)cc23)c1 [Example 587, 2,4(1H,3H)-Pyrimidinedione, 1-methyl-3-{3-{[(m-methylbenzyl)oxy]methyl}-1,2-benzisothiazol-5-yl}-6-(trifluoromethyl)-]","herbicidal effect rating, ECHORC",[1]; [5],7.0
same,"herbicidal effect rating, ECHORC",[1]; [6],7.0
same,"herbicidal effect rating, ECHORC",[1]; [7],9.0
same,"herbicidal effect rating, ECHORC",[1]; [8],9.0
same,"herbicidal effect rating, CYPIR",Cyperus iria; [5],4.0
same,"herbicidal effect rating, CYPIR",Cyperus iria; [6],8.0
same,"herbicidal effect rating, CYPIR",Cyperus iria; [7],9.0
same,"herbicidal effect rating, CYPIR",Cyperus iria; [8],9.0
same,"herbicidal effect rating, CYPSE",[2]; [5],0.0
same,"herbicidal effect rating, CYPSE",[2]; [7],0.0
same,"herbicidal effect rating, MOOVA",[3]; [5],5.0
same,"herbicidal effect rating, MOOVA",[3]; [6],5.0
same,"herbicidal effect rating, MOOVA",[3]; [7],9.0
same,"herbicidal effect rating, MOOVA",[3]; [8],9.0
same,"herbicidal effect rating, SAGPY","Sagittaria pygmaea, L.; [5]",0.0
same,"herbicidal effect rating, SAGPY","Sagittaria pygmaea, L.; [6]",2.0
same,"herbicidal effect rating, SAGPY","Sagittaria pygmaea, L.; [7]",5.0
same,"herbicidal effect rating, SAGPY","Sagittaria pygmaea, L.; [8]",5.0
same,herbicidal effect rating ORYSAT,[4]; [5],4.0
same,herbicidal effect rating ORYSAT,[4]; [6],4.0
same,herbicidal effect rating ORYSAT,[4]; [7],4.0
same,herbicidal effect rating ORYSAT,[4]; [8],5.0
"Cc1ccc(OCC(=O)NS(=O)(=O)C(C)C)c(-c2nsc3ccc(-n4c(=O)cc(C(F)(F)F)n(C)c4=O)cc23)c1 [Example 560, Acetamide, 2-{{2-{5-[3,6-dihydro-3-methyl-2,6-dioxo-4-(trifluoromethyl)-1(2H)-pyrimidinyl]-1,2-benzisothiazol-3-yl}-p-tolyl}oxy}-N-(isopropylsulfonyl)-]","herbicidal effect rating, ECHORC",[1]; [9],2.0
same,"herbicidal effect rating, ECHORC",[1]; [10],3.0
same,"herbicidal effect rating, ECHORC",[1]; [11],4.6
same,"herbicidal effect rating, ECHORC",[1]; [12],9.0
same,"herbicidal effect rating, ECHORC",[1]; [13],7.0
same,"herbicidal effect rating, CYPIR",Cyperus iria; [9],0.0
same,"herbicidal effect rating, CYPIR",Cyperus iria; [10],2.0
same,"herbicidal effect rating, CYPIR",Cyperus iria; [11],7.0
same,"herbicidal effect rating, CYPIR",Cyperus iria; [12],9.0
same,"herbicidal effect rating, CYPIR",Cyperus iria; [13],3.0
same,"herbicidal effect rating, CYPSE",[2]; [9],0.0
same,"herbicidal effect rating, CYPSE",[2]; [10],2.0
same,"herbicidal effect rating, CYPSE",[2]; [11],7.0
same,"herbicidal effect rating, CYPSE",[2]; [12],9.0
same,"herbicidal effect rating, CYPSE",[2]; [13],9.0
same,"herbicidal effect rating, MOOVA",[3]; [9],8.0
same,"herbicidal effect rating, MOOVA",[3]; [10],9.0
same,"herbicidal effect rating, MOOVA",[3]; [11],9.0
same,"herbicidal effect rating, MOOVA",[3]; [12],9.0
same,"herbicidal effect rating, MOOVA",[3]; [13],9.0
same,"herbicidal effect rating, SAGPY","Sagittaria pygmaea, L.; [9]",0.0
same,"herbicidal effect rating, SAGPY","Sagittaria pygmaea, L.; [10]",0.0
same,"herbicidal effect rating, SAGPY","Sagittaria pygmaea, L.; [11]",0.0
same,"herbicidal effect rating, SAGPY","Sagittaria pygmaea, L.; [12]",0.0
same,"herbicidal effect rating, SAGPY","Sagittaria pygmaea, L.; [13]",0.0
same,herbicidal effect rating ORYSAT,[4]; [9],3.0
same,herbicidal effect rating ORYSAT,[4]; [10],3.0
same,herbicidal effect rating ORYSAT,[4]; [11],2.0
same,herbicidal effect rating ORYSAT,[4]; [12],4.0
same,herbicidal effect rating ORYSAT,[4]; [13],2.0
"Cn1c(C(F)(F)F)cc(=O)n(-c2ccc3snc(/C=C/C(=O)c4ccccc4)c3c2)c1=O [Example 564, 2,4(1H,3H)-Pyrimidinedione, 1-methyl-3-[3-(3-oxo-3-phenylpropenyl)-1,2-benzisothiazol-5-yl]-6-(trifluoromethyl)-, (E)-]","herbicidal effect rating, ECHORC",[1]; [9],4.0
same,"herbicidal effect rating, ECHORC",[1]; [10],4.0
same,"herbicidal effect rating, ECHORC",[1]; [11],5.0
same,"herbicidal effect rating, ECHORC",[1]; [12],7.0
same,"herbicidal effect rating, CYPIR",Cyperus iria; [9],6.0
same,"herbicidal effect rating, CYPIR",Cyperus iria; [10],6.0
same,"herbicidal effect rating, CYPIR",Cyperus iria; [11],7.0
same,"herbicidal effect rating, CYPIR",Cyperus iria; [12],9.0
same,"herbicidal effect rating, CYPSE",[2]; [9],0.0
same,"herbicidal effect rating, CYPSE",[2]; [10],0.0
same,"herbicidal effect rating, CYPSE",[2]; [11],0.0
same,"herbicidal effect rating, CYPSE",[2]; [12],4.0
same,"herbicidal effect rating, MOOVA",[3]; [9],9.0
same,"herbicidal effect rating, MOOVA",[3]; [10],9.0
same,"herbicidal effect rating, MOOVA",[3]; [11],9.0
same,"herbicidal effect rating, MOOVA",[3]; [12],9.0
same,"herbicidal effect rating, SAGPY","Sagittaria pygmaea, L.; [9]",0.0
same,"herbicidal effect rating, SAGPY","Sagittaria pygmaea, L.; [10]",0.0
same,"herbicidal effect rating, SAGPY","Sagittaria pygmaea, L.; [11]",0.0
same,"herbicidal effect rating, SAGPY","Sagittaria pygmaea, L.; [12]",0.0
same,herbicidal effect rating ORYSAT,[4]; [9],0.0
same,herbicidal effect rating ORYSAT,[4]; [10],0.0
same,herbicidal effect rating ORYSAT,[4]; [11],0.0
same,herbicidal effect rating ORYSAT,[4]; [12],0.0
